# Data taken from patent US20060089375A1, “Pyrazolo[3,4-b] pyridine compounds, and their use as phosphodiesterase inhibitors” (priority 2002, published 2006).
# Test system: pica feeding response
# Experiment: In Vivo Assay 2: Rat Pica Model of Emesis
# Conditions: oral, rats, dosed orally, upper end given as greater than or equal to about 40 mg/kg
# Source text: However, a side effect of some PDE4 inhibitors in many species is emesis. Because many rat models of inflammation are well characterized, they have been used in procedures (see e.g. In Vivo Assay 1 above) to show beneficial anti-inflammatory effects of PDE 4 inhibitors. However rats have no emetic response (they have no vomit reflex), so that the relationship between beneficial anti-inflammatory effects of PDE 4 inhibitors and emesis is difficult to study directly in rats.
# Pica feeding is a behavioural response to illness in rats wherein rats eat non-nutritive substances such as earth or in particular clay (e.g. kaolin) which may help to absorb toxins. Pica feeding can be induced by motion and chemicals (especially chemicals which are emetic in humans), and can be inhibited pharmacologically with drugs that inhibit emesis in humans. The Rat Pica Model, In Vivo Assay 2, can determine the level of pica response of rats to PDE 4 inhibition at pharmacologically relevant doses in parallel to in vivo anti-inflammatory Assays in (a separate set of) rats (e.g. In Vivo Assay 1 above). […] The Rat TI can for example be calculated as the ratio of a) the potentially-emetic Pica Response ED50 dose from Assay 2 to b) the rat anti-inflammatory ED50 dose (e.g. measured by rat neutrophilia-inhibition in eg In Vivo Assay 1), with larger TI ratios possibly indicating lower emesis at many anti-inflammatory doses. […]
# At the end of 72 hours the rats are placed in clean cages and the food cups weighed. […] The food and clay cups and cage debris are weighed the following day and the total clay and food consumed that night by each individual animal is calculated.
# A dose response is calculated by first converting the data into quantal response, where animals are either positive or negative for the pica response. A rat is “pica positive” if it consumes greater than or equal to 0.3 grams of clay […] using logistic regression performed by the Statistica software statistical package. A Pica Response ED50 value in mg per kg of body weight can then be calculated.
row,Structure (SMILES),ED50 [mg/kg]
1,"CCn1ncc2c(NC3CCOCC3)c(C(=O)Nc3ccc(F)cc3)cnc21 [Example 22, 1-Ethyl-N-(4-fluorophenyl)-4-(tetrahydro-2H-pyran-4-ylamino)-1H-pryazolo[3,4-b]pyridine-5-carboxamide]",4.8 to 40
2,"CCNC(=O)c1cnc2c(cnn2CC)c1NC1CCOCC1 [Example 83, 1-Ethyl-N-ethyl-4-(tetrahydro-2H-pyran-4-ylamino)-1H-pyrazolo[3,4-b]pyridine-5-carboxamide]",4.8 to 40
3,"CCn1ncc2c(NC3CCOCC3)c(C(=O)NCc3ccc(C(F)(F)F)cc3)cnc21 [Example 155, 1-Ethyl-4-(tetrahydro-2H-pyran-4-ylamino)-N-[4-(trifluoromethyl)benzyl]-1H-pyrazolo[3,4-b]pyridine-5-carboxamide]",4.8 to 40
